# Data reported in patent publication US20100113276A1, “USE OF N2-PHENYLAMIDINES AS HERBICIDES” (BAYER CROPSCIENCE AG, priority 2007, published 2010).
# Test: log P by HPLC on reversed-phase column (C18), EEC Directive 79/831 Annex V.A8
# Format: physicochemical
# Details: C18, 40° C.; for log p H3PO4: 0.1% aqueous phosphoric acid / acetonitrile; for log p HCO2H: aqueous formic acid / acetonitrile
# Method: The log P data were determined in accordance with the EEC Directive 79/831 Annex V.A8 by HPLC (High Performance Liquid Chromatography) on a reversed-phase column (C18) using the following methods: […]
# Calibration was carried out with the help of unbranched alkan-2-ones (consisting of 3 to 13 or 16 carbon atoms) with known logP values (determination of the logP values via the retention times by means of linear interpolation between two subsequent alkanones).
SMILES,log p acidic,log p H3PO4,log p HCO2H,log p neutral
CCN(C)C=Nc1cc(OC)c(Oc2ccc(Cl)c(C(C)(C)C)c2)cc1C [compound 733],2.75,,,
CCN(C)C=Nc1cc(C(F)(F)F)c(Oc2cccc(C(C)(C)C)c2)cc1C [compound 761],2.94,,,
Cc1cc(-c2cccc(C(C)C)c2)c(C(F)F)cc1N=CN1CCCCC1 [compound 799],2.6,,,
CCN(C)C=Nc1cc(Cl)c(Oc2ccccc2)cc1Cl [compound 801],,1.86,1.91,4.49
CC(C)N(C)C=Nc1cc(Cl)c(Oc2ccccc2)cc1Cl [compound 802],,2,2.08,4.84
Clc1cc(Oc2ccccc2)c(Cl)cc1N=CN1CCCCC1 [compound 804],,2.03,2.12,5.09
CCN(C)C=Nc1cc(Cl)c(Oc2cccc(C(C)(C)C)c2)cc1Cl [compound 806],,2.74,2.79,5.91
CC(C)N(C)C=Nc1cc(Cl)c(Oc2cccc(C(C)(C)C)c2)cc1Cl [compound 807],,2.7,2.82,6.13
CC(C)(C)c1cccc(Oc2cc(Cl)c(N=CN3CCCCC3)cc2Cl)c1 [compound 809],,2.81,3.04,6.41
CN(C)C=Nc1cc(Cl)c(Oc2ccc(Cl)c(C(C)(C)C)c2)cc1Cl [compound 810],,2.9,2.94,6.13
CCN(C)C=Nc1cc(Cl)c(Oc2ccc(Cl)c(C(C)(C)C)c2)cc1Cl [compound 811],,3.16,3.17,6.64
CC(C)N(C)C=Nc1cc(Cl)c(Oc2ccc(Cl)c(C(C)(C)C)c2)cc1Cl [compound 812],,3.35,3.31,6.81
CC(C)(C)c1cc(Oc2cc(Cl)c(N=CN3CCCCC3)cc2Cl)ccc1Cl [compound 814],,3.45,3.62,7.08
CN(C)C=Nc1cc(Cl)c(Oc2ccc(Cl)c(C(F)(F)F)c2)cc1Cl [compound 815],,2.35,2.45,5.15
CCN(C)C=Nc1cc(Cl)c(Oc2ccc(Cl)c(C(F)(F)F)c2)cc1Cl [compound 816],,2.6,2.65,5.56
CC(C)N(C)C=Nc1cc(Cl)c(Oc2ccc(Cl)c(C(F)(F)F)c2)cc1Cl [compound 817],,2.74,2.8,5.88
FC(F)(F)c1cc(Oc2cc(Cl)c(N=CN3CCCCC3)cc2Cl)ccc1Cl [compound 819],,2.85,3,6.12
CCN(C)C=Nc1cc(Cl)c(Oc2nc(C(C)(C)C)ns2)cc1Cl [compound 825],,2.34,2.56,5.25
CC(C)N(C)C=Nc1cc(Cl)c(Oc2nc(C(C)(C)C)ns2)cc1Cl [compound 826],,2.53,2.78,5.61

SMILES,log p acidic,log p H3PO4,log p HCO2H,log p neutral
CCN(C)C=Nc1cc(F)c(Oc2cccc(C(C)(C)C)c2)cc1F [compound 830],2.4,,,
CC(C)(C)c1cc(Oc2cc(F)c(N=CN3CCCCC3)cc2F)ccc1Cl [compound 836],2.71,,,5.74
CCN(C)C=Nc1cc(F)c(-c2ccc(C(C)(C)C)cc2)cc1F [compound 846],2.79,,,
CCN(C)C=Nc1cc(F)c(-c2ccc(Cl)c(C(F)(F)F)c2)cc1F [compound 854],2.22,,,
CCN(C)C=Nc1cc(Cl)c(Oc2cccc(C(C)(C)C)c2)cc1I [compound 862],2.98,,,
CCN(C)C=Nc1cc(C)c(Oc2cccc(C(C)(C)C)c2)cc1Cl [compound 870],,2.76,2.55,5.79
Cc1cc(N=CN(C)C(C)C)c(Cl)cc1Oc1cccc(C(C)(C)C)c1 [compound 871],,2.79,2.54,5.84
Cc1cc(N=CN2CCCCC2)c(Cl)cc1Oc1cccc(C(C)(C)C)c1 [compound 873],,3,2.79,6.42
CCN(C)C=Nc1cc(C)c(Oc2cccc(C(C)C)c2)cc1Cl [compound 875],,2.56,2.38,5.51
Cc1cc(N=CN2CCCCC2)c(Cl)cc1Oc1cccc(C(C)C)c1 [compound 878],,2.77,2.62,6.14
CCN(C)C=Nc1cc(C)c(Oc2cccc(Oc3ccccc3)c2)cc1Cl [compound 880],,2.63,2.47,5.44
Cc1cc(N=CN2CCCCC2)c(Cl)cc1Oc1cccc(Oc2ccccc2)c1 [compound 882],,2.82,2.66,6.03
CCN(C)C=Nc1cc(C)c(Oc2ccc(C(C)(C)C)cc2)cc1Cl [compound 884],,2.87,2.69,5.86
Cc1cc(N=CN2CCCCC2)c(Cl)cc1Oc1ccc(C(C)(C)C)cc1 [compound 886],,3.01,2.78,6.49
CCN(C)C=Nc1cc(C)c(Oc2ccc(C(C)C)cc2)cc1Cl [compound 888],,2.61,2.45,5.58
Cc1cc(N=CN(C)C(C)C)c(Cl)cc1Oc1ccc(C(C)C)cc1 [compound 889],,2.87,2.62,5.91
Cc1cc(N=CN2CCCCC2)c(Cl)cc1Oc1ccc(C(C)C)cc1 [compound 891],,2.82,2.64,6.21
Cc1cc(N=CN(C)C)c(Cl)cc1Oc1ccc(Cl)c(C(F)(F)F)c1 [compound 892],,2.35,2.3,5.08
CCN(C)C=Nc1cc(C)c(Oc2ccc(Cl)c(C(F)(F)F)c2)cc1Cl [compound 893],,2.51,2.44,5.49

SMILES,log p acidic,log p H3PO4,log p HCO2H,log p neutral
Cc1cc(N=CN(C)C(C)C)c(Cl)cc1Oc1ccc(Cl)c(C(F)(F)F)c1 [compound 894],,1.73,2.55,
CCN(C)C=Nc1cc(C)c(Oc2ccc(Cl)c(C(C)C)c2)cc1Cl [compound 898],,2.88,2.78,6.12
Cc1cc(N=CN(C)C(C)C)c(Cl)cc1Oc1ccc(Cl)c(C(C)C)c1 [compound 899],,3.07,2.92,6.45
Cc1cc(N=CN2CCCCC2)c(Cl)cc1Oc1ccc(Cl)c(C(C)C)c1 [compound 901],,3.12,3,6.72
Cc1cc(N=CN(C)C)c(Cl)cc1Oc1ccc(Cl)c(C(C)(C)C)c1 [compound 902],,1.57,2.65,6.11
CCN(C)C=Nc1cc(C)c(Oc2ccc(Cl)c(C(C)(C)C)c2)cc1Cl [compound 903],,2.98,2.8,6.54
Cc1cc(N=CN(C)C(C)C)c(Cl)cc1Oc1ccc(Cl)c(C(C)(C)C)c1 [compound 904],,1.35,3.01,6.87
Cc1cc(N=CN2CCCCC2)c(Cl)cc1Oc1ccc(Cl)c(C(C)(C)C)c1 [compound 906],,3.36,3.25,7.04
CCN(C)C=Nc1cc(C)c(Oc2nc(C(C)(C)C)ns2)cc1Cl [compound 916],2.1,,,4.92
CCN(C)C=Nc1cc(C)c(-c2ccc(Cl)c(C(F)(F)F)c2)cc1Cl [compound 928],2.3,,,5.31
CCN(C)C=Nc1cc(C(F)(F)F)c(Oc2ccc(Cl)c(C(C)(C)C)c2)cc1Cl [compound 944],,3.35,3.39,6.63
CC(C)(C)c1cc(Oc2cc(Cl)c(N=CN3CCCCC3)cc2C(F)(F)F)ccc1Cl [compound 946],,3.61,3.68,7.1
CN(C)C=Nc1cc(C(F)(F)F)c(Oc2ccc(Cl)c(C(F)(F)F)c2)cc1Cl [compound 947],,2.61,2.78,5.39
CCN(C)C=Nc1cc(C(F)(F)F)c(Oc2ccc(Cl)c(C(F)(F)F)c2)cc1Cl [compound 948],,2.87,2.98,5.74
CC(C)N(C)C=Nc1cc(C(F)(F)F)c(Oc2ccc(Cl)c(C(F)(F)F)c2)cc1Cl [compound 949],,2.82,3.08,6
FC(F)(F)c1cc(Oc2cc(Cl)c(N=CN3CCCCC3)cc2C(F)(F)F)ccc1Cl [compound 951],,3.03,3.42,6.2
CCN(C)C=Nc1cc(C(F)(F)F)c(-c2ccc(C(C)(C)C)cc2)cc1Cl [compound 962],2.74,,,6.15
COc1cc(Oc2ccc(Cl)c(C(C)(C)C)c2)c(OC)cc1N=CN(C)C [compound 981],,,3.11,7.36
CCN(C)C=Nc1cc(OC)c(Oc2ccc(Cl)c(C(F)(F)F)c2)cc1OC [compound 986],2.23,,,4.14
